The values that follow are results of earlier work, collected in patent US20210212962A1, “METHODS AND COMPOSITIONS FOR THE TREATMENT OF GRANULOMA ANNULARE OR SUBCUTANEOUS INFLAMMATION AND NON-INFECTION GRANULOMATOUS DISEASES” (Sol-Gel Technologies Ltd., priority 2020, published 2021).

The conditions of the series: known for tapinarof treatments.

`CC(C)c1c(O)cc(/C=C/c2ccccc2)cc1O` [tapinarof, 3,5-dihydroxy-4-isopropyl-trans-stilbene]: the “folliculitis as a side effect in tapinarof treatments” value is listed as 10%.
